Experiment [1] has as its system C57BL/6J mice (mild hyperglycemic). The experiment is described as follows: In vivo glucose reduction, acute single dose 120-min time-course, i.p. route. Set-up: species or system mouse; unit not given here. To be noted: male C57BL/6J mice. The protocol: All the animal experiments were carried out according to the internationally valid guidelines following approval by the ‘Zydus Research Center animal ethical committee’.
Two days prior to the study, the animals were randomised and divided into 5 groups (n=6), based upon their fed glucose levels. On the day of experiment, food was withdrawn from all the cages, water was given ad-libitum and were kept for overnight fasting. Vehicle (normal saline)/test/standard compounds were administered intraperitoneally (i.p.) or orally, on a body weight basis.
(§1) Blood samples were centrifuged and the separated serum was immediately subjected for the glucose estimation. Serum for insulin estimation was stored at −70° C. until used for the insulin estimation. The glucose estimation was carried out with DPEC-GOD/POD method (Ranbaxy Fine Chemicals Limited, Diagnostic division, India), using Spectramax-190, in 96-microwell plate reader (Molecular devices Corporation, Sunnyvale, Calif.). […] The AUC and BCAUC obtained from graphs were analyzed for one way ANOVA, followed by Dunnett's post test, using Graph Pad prism software. Furthermore, the insulin estimation was carried out using rat/mouse insulin ELISA kit (Linco research, Missouri USA).

The test system is the same in experiment [2]. The experiment is described as follows: In vivo glucose reduction, acute single dose 120-min time-course, oral route. Set-up: species or system mouse; unit not given here. To be noted: male C57BL/6J mice, 2 μM/kg oral. Here is the method: Acute single dose 120-min time-course experiments were carried out in male C57BL/6J or db/db mice, age 8-12 weeks, bred in-house. Animals were housed in groups of 6 animals per cage, for a week, in order to habituate them to vivarium conditions (25±4° C., 60-65% relative humidity, 12:12 h light:dark cycle, with lights on at 7.30 am). All the animal experiments were carried out according to the internationally valid guidelines following approval by the ‘Zydus Research Center animal ethical committee’.
Two days prior to the study, the animals were randomised and divided into 5 groups (n=6), based upon their fed glucose levels. On the day of experiment, food was withdrawn from all the cages, water was given ad-libitum and were kept for overnight fasting. Vehicle (normal saline)/test/standard compounds were administered intraperitoneally (i.p.) or orally, on a body weight basis. Soon after the 0 min. blood collection from each animal, the subsequent blood collections were done at 30, 60 and 120 or up to 240 min., via retro-orbital route, under light ether anesthesia (Chen, D., et al., Diabetes Obesity Metabolism, 2005, 7, 307. Kim, J. G. et al., Diabetes, 2003, 52, 751).
as §1, with “USA). Changes in the blood glucose levels, at 0, 30, 60 and 120 min, with selected peptidomimetics are shown in Table 7 (via ip route of administration) and Table 8 (via oral route of administration) respectively.” for “USA).”

Starred links: 1 amine or outer side, 2 acyl side, 3 side chain; linkers in the order of their positions; H or OH if unused. Non-standard residues stand in square brackets, D forms with d. Residues, ends and D or L forms follow the SMILES beside them. ξ: configuration not given here. ξBip(2'-Et-4'-OMe) = CCc1cc(OC)ccc1-c1ccc(CC(N)C(=O)O)cc1; ξNva(5-(3-Cl-Ph)) = NC(CCCc1cccc(Cl)c1)C(=O)O; X12 = COc1ccc(CCCC(N[*:1])C(=O)[*:2])c(Cl)c1; ξαMePhe(2-F) = CC(N)(Cc1ccccc1F)C(=O)O; X2 = O=C(C(CCCc1ccccc1Cl)N[*:1])[*:2]; Aib = CC(C)(N)C(=O)O

Take `CCc1cc(OC)ccc1-c1ccc(CC(NC(=O)[C@H](CC(=O)O)NC(=O)[C@H](CO)NC(=O)[C@@H](NC(=O)C(C)(Cc2ccccc2F)NC(=O)[C@@H](NC(=O)CNC(=O)C(CCC#N)NC(=O)C(C)(C)NC(=O)[C@@H](N)Cc2c[nH]cn2)[C@H](C)O)[C@H](C)O)C(=O)N(C)C(CCCc2ccccc2)C(N)=O)cc1` (single isomer, unassigned) [Seq. ID. 130]: the blood glucose levels in experiment [1] (30 nM/kg i.p., 0 min) is reported as 181 ± 5.2; in experiment [1] (30 nM/kg i.p., 30 min), 119 ± 2.6; in experiment [1] (30 nM/kg i.p., 60 min), 117 ± 2.1; in experiment [1] (30 nM/kg i.p., 120 min), 119 ± 2.3; in experiment [2] (0 min), 183 ± 2.4; in experiment [2] (30 min) it was 116 ± 3.1. Also, the blood glucose levels in experiment [2] (60 min) stood at 112 ± 4.8; in experiment [2] (120 min), 110 ± 2.5.
Consider `CCc1cc(OC)ccc1-c1ccc(CC(NC(=O)[C@H](CC(=O)O)NC(=O)[C@H](CO)NC(=O)[C@@H](NC(=O)[C@H](Cc2ccccc2)NC(=O)[C@@H](NC(=O)CNC(=O)C(CCC#N)NC(=O)C(C)(C)NC(=O)[C@@H](N)Cc2c[nH]cn2)[C@@H](C)O)[C@@H](C)O)C(=O)NC(CCCc2cc(C)cc(C)c2)C(N)=O)cc1` (single isomer, unassigned) [Seq. ID. 30], for which the blood glucose levels in experiment [1] (30 nM/kg i.p., 0 min) is 183 ± 3.6; in experiment [1] (30 nM/kg i.p., 30 min), 117 ± 3.3; in experiment [1] (30 nM/kg i.p., 60 min), 116 ± 3.2; in experiment [1] (30 nM/kg i.p., 120 min), 117 ± 1.4; in experiment [2] (0 min), 183 ± 2.4; in experiment [2] (30 min) it was 119 ± 3.1. The blood glucose levels in experiment [2] (60 min) was found to be 112 ± 4.8; in experiment [2] (120 min), 110 ± 2.5.
Consider `CCc1cc(OC)ccc1-c1ccc(CC(NC(=O)[C@H](CC(=O)O)NC(=O)[C@H](CO)NC(=O)[C@@H](NC(=O)[C@H](Cc2ccccc2)NC(=O)[C@@H](NC(=O)CNC(=O)C(CCC#N)NC(=O)C(C)(C)NC(=O)[C@@H](N)Cc2c[nH]cn2)[C@@H](C)O)[C@@H](C)O)C(=O)NC(CCCc2ccc(OC)cc2Cl)C(N)=O)cc1` (single isomer, unassigned) [Seq. ID. 84], for which the blood glucose levels is reported as 182 ± 2.3 in experiment [1] (10 nM/kg i.p., 0 min); 110 ± 2.3 in experiment [1] (10 nM/kg i.p., 30 min); 112 ± 3.0 in experiment [1] (10 nM/kg i.p., 60 min); 112 ± 1.9 in experiment [1] (10 nM/kg i.p., 120 min); 183 ± 2.4 in experiment [2] (0 min); 116 ± 3.1 in experiment [2] (30 min). In addition, the blood glucose levels in experiment [2] (60 min) was determined as 112 ± 4.8; in experiment [2] (120 min), 110 ± 2.5.
In the case of `CCc1cc(OC)ccc1-c1ccc(CC(NC(=O)[C@H](CC(=O)O)NC(=O)[C@H](CO)NC(=O)[C@@H](NC(=O)C(C)(Cc2ccccc2F)NC(=O)[C@@H](NC(=O)CNC(=O)[C@H](CC(C(F)(F)F)C(F)(F)F)NC(=O)C(C)(C)NC(=O)[C@@H](N)Cc2c[nH]cn2)[C@@H](C)O)[C@H](C)O)C(=O)NC(CCCc2ccccc2)C(N)=O)cc1` (single isomer, unassigned) [Seq. ID. 225], the blood glucose levels in experiment [1] (10 nM/kg i.p., 0 min) is reported as 184 ± 5.0; in experiment [1] (10 nM/kg i.p., 30 min), 122 ± 3.8; in experiment [1] (10 nM/kg i.p., 60 min), 128 ± 2.1; in experiment [1] (10 nM/kg i.p., 120 min), 149 ± 2.3; in experiment [2] (0 min), 183 ± 2.3; in experiment [2] (30 min), 119 ± 3.0. In addition, the figures for the blood glucose levels in experiment [2] (60 min) and in experiment [2] (120 min) were 112 ± 4.3 and 109 ± 2.6, respectively.
As for `CCc1cc(OC)ccc1-c1ccc(CC(NC(=O)[C@H](CC(=O)O)NC(=O)[C@H](CO)NC(=O)[C@@H](NC(=O)[C@H](Cc2ccccc2)NC(=O)[C@@H](NC(=O)CNC(=O)[C@H](CCC(N)=O)NC(=O)[C@H](C)NC(=O)[C@@H](N)Cc2c[nH]cn2)[C@@H](C)O)[C@@H](C)O)C(=O)NC(CCCc2cccc(Cl)c2)C(N)=O)cc1` (some centres unmarked) [Seq. ID. 15] (H-HAQGTFTSD[ξBip(2'-Et-4'-OMe)][ξNva(5-(3-Cl-Ph))]-NH2), the blood glucose levels in experiment [1] (30 nM/kg i.p., 0 min) is given as 180 ± 3.2; in experiment [1] (30 nM/kg i.p., 30 min), 119 ± 3.2; in experiment [1] (30 nM/kg i.p., 60 min), 117 ± 3.1; in experiment [1] (30 nM/kg i.p., 120 min) it was 118 ± 1.8; in experiment [2] (0 min), 183 ± 2.4; in experiment [2] (30 min), 116 ± 3.1. For the same compound, the figures for the blood glucose levels in experiment [2] (60 min) and in experiment [2] (120 min) were 112 ± 4.8 and 110 ± 2.5, respectively.
As for `CCc1cc(OC)ccc1-c1ccc(CC(NC(=O)[C@H](CC(=O)O)NC(=O)[C@H](CO)NC(=O)[C@@H](NC(=O)C(C)(Cc2ccccc2F)NC(=O)[C@@H](NC(=O)CNC(=O)[C@H](CCC(N)=O)NC(=O)C(C)(C)NC(=O)[C@@H](N)Cc2c[nH]cn2)[C@@H](C)O)[C@@H](C)O)C(=O)NC(CCCc2ccc(OC)cc2Cl)C(N)=O)cc1` (some centres unmarked) [Seq. ID. 92] (H-H[Aib]QGT[ξαMePhe(2-F)]TSD[ξBip(2'-Et-4'-OMe)][X12]-NH2), the blood glucose levels came out at 180 ± 4.2 in experiment [1] (10 nM/kg i.p., 0 min); 113 ± 3.2 in experiment [1] (10 nM/kg i.p., 30 min); 112 ± 2.4 in experiment [1] (10 nM/kg i.p., 60 min); 110 ± 1.9 in experiment [1] (10 nM/kg i.p., 120 min).
For the compound `CCc1cc(OC)ccc1-c1ccc(CC(NC(=O)[C@H](CC(=O)O)NC(=O)[C@H](CO)NC(=O)[C@@H](NC(=O)C(C)(Cc2ccccc2F)NC(=O)[C@@H](NC(=O)CNC(=O)[C@H](CCC(N)=O)NC(=O)C(C)(C)NC(=O)[C@@H](N)Cc2c[nH]cn2)[C@@H](C)O)[C@@H](C)O)C(=O)NC(CCCc2ccccc2Cl)C(N)=O)cc1` (some centres unmarked) [Seq. ID. 90] (H-H[Aib]QGT[ξαMePhe(2-F)]TSD[ξBip(2'-Et-4'-OMe)][X2]-NH2), the blood glucose levels worked out at 181 ± 2.5 in experiment [1] (10 nM/kg i.p., 0 min); 111 ± 3.4 in experiment [1] (10 nM/kg i.p., 30 min); 113 ± 3.1 in experiment [1] (10 nM/kg i.p., 60 min); 110 ± 1.8 in experiment [1] (10 nM/kg i.p., 120 min).
In the case of `CCc1cc(OC)ccc1-c1ccc(CC(CNC(CCCc2ccccc2)C(N)=O)NC[C@H](CC(=O)O)NC(=O)[C@H](CO)NC(=O)[C@@H](NC(=O)C(C)(Cc2ccccc2F)NC(=O)[C@@H](NC(=O)CNC(=O)[C@H](CCC(N)=O)NC(=O)C(C)(C)NC(=O)[C@H](Cc2c[nH]cn2)NC(C)=O)[C@H](C)O)[C@H](C)O)cc1` (single isomer, unassigned) [Seq. ID. 197], the blood glucose levels in experiment [1] (50 nM/kg i.p., 0 min) was 180 ± 4.2; in experiment [1] (50 nM/kg i.p., 30 min), 113 ± 3.2; in experiment [1] (50 nM/kg i.p., 60 min), 112 ± 2.4; in experiment [1] (50 nM/kg i.p., 120 min) it was 110 ± 1.9.
In the same order, the values of `CCc1cc(OC)ccc1-c1ccc(CC(CNC(CCCc2ccccc2)C(N)=O)NC[C@H](CC(=O)O)NC(=O)[C@H](CO)NC(=O)[C@@H](NC(=O)C(C)(Cc2ccccc2F)NC(=O)[C@@H](NC(=O)CNC(=O)[C@H](CCC(N)=O)NC(=O)C(C)(C)NC(=O)[C@H](Cc2c[nH]cn2)NC(=O)OC)[C@H](C)O)[C@H](C)O)cc1` (single isomer, unassigned) [Seq. ID. 198] are 182 ± 4.1, 112 ± 3.1, 113 ± 2.6 and 111 ± 1.8.

The values above are taken from patent publication US8883963B2 (Cadila Healthcare Limited, priority 2007, dated 2014).
